Source: the NIST ThermoML archive (doi:10.1021/je0340755)
Numbers after ± are expanded uncertainties.

Assay: xn = mol fraction of the nth substance listed
Details: 101.3 kPa, Liquid; for viscosity: Capillary tube (Ostwald / Ubbelohde) method

OCCCO [propan-1,3-diol] + O
Details	mass density, 318.15 K [kg/m3]	mass density, 328.15 K [kg/m3]	mass density, 338.15 K [kg/m3]	speed of sound, 318.15 K [m/s]	speed of sound, 328.15 K [m/s]	speed of sound, 338.15 K [m/s]	viscosity, 328.15 K [mPa·s]	viscosity, 338.15 K [mPa·s]
x2 = 0.0622	–	1031.1 ± 0.42	1024.56 ± 0.41	–	1585.1 ± 6.5	1565.1 ± 6.4	10.49 ± 0.081	7.386 ± 0.073
x2 = 0.1496	–	1031.18 ± 0.41	1024.59 ± 0.4	–	1591.1 ± 6.5	1571.2 ± 6.4	9.407 ± 0.078	6.633 ± 0.072
x2 = 0.2563	–	1031.17 ± 0.4	1024.49 ± 0.38	–	1603.2 ± 6.5	1582.3 ± 6.5	8.114 ± 0.074	5.732 ± 0.07
x2 = 0.35	–	1030.98 ± 0.39	1024.2 ± 0.37	–	1618.2 ± 6.6	1594.8 ± 6.5	6.986 ± 0.072	4.946 ± 0.068
x2 = 0.4555	–	1030.32 ± 0.38	1023.41 ± 0.36	–	1635.8 ± 6.6	1611.1 ± 6.6	5.721 ± 0.069	4.065 ± 0.067
x2 = 0.5	–	1029.79 ± 0.37	1022.84 ± 0.35	1667 ± 6.7	1642.1 ± 6.6	1616.8 ± 6.6	5.192 ± 0.068	3.696 ± 0.066
x2 = 0.5548	1035.46 ± 0.39	1028.83 ± 0.37	1021.85 ± 0.35	1674.1 ± 6.7	1649.1 ± 6.7	1623.9 ± 6.6	4.547 ± 0.067	3.247 ± 0.065
x2 = 0.6522	1032.48 ± 0.37	1025.94 ± 0.35	1019 ± 0.33	1682 ± 6.8	1657.8 ± 6.7	1634.1 ± 6.6	3.436 ± 0.066	2.473 ± 0.064
x2 = 0.7553	1026.64 ± 0.35	1020.39 ± 0.33	1013.69 ± 0.31	1683 ± 6.8	1661.1 ± 6.7	1639 ± 6.6	2.346 ± 0.064	1.715 ± 0.064
x2 = 0.8522	1017.23 ± 0.31	1011.49 ± 0.3	1005.25 ± 0.28	1666.1 ± 6.7	1651.2 ± 6.7	1632 ± 6.6	1.456 ± 0.064	1.096 ± 0.063
x2 = 0.9085	1009.22 ± 0.29	1003.89 ± 0.27	998.04 ± 0.26	1639.2 ± 6.6	1630 ± 6.6	1616 ± 6.6	1.024 ± 0.063	0.797 ± 0.063
x2 = 0.9147	1008.19 ± 0.28	1002.92 ± 0.27	997.1 ± 0.27	1635.3 ± 6.6	1626.2 ± 6.6	1613.2 ± 6.6	0.981 ± 0.063	0.767 ± 0.063
x2 = 0.9255	1006.32 ± 0.28	1001.14 ± 0.26	995.41 ± 0.27	1625.9 ± 6.6	1620.2 ± 6.6	1608.2 ± 6.5	0.909 ± 0.063	0.717 ± 0.063
x2 = 0.935	1004.59 ± 0.27	999.49 ± 0.26	993.83 ± 0.28	1617.9 ± 6.6	1613.2 ± 6.5	1603.1 ± 6.5	0.848 ± 0.063	0.675 ± 0.063
x2 = 0.9548	1000.71 ± 0.26	995.78 ± 0.27	990.28 ± 0.29	1598.1 ± 6.5	1597.2 ± 6.5	1591.1 ± 6.5	0.729 ± 0.063	0.593 ± 0.063
x2 = 0.9556	1000.54 ± 0.26	995.62 ± 0.27	990.13 ± 0.29	1592.2 ± 6.5	1596.1 ± 6.5	1591.3 ± 6.5	0.725 ± 0.063	0.59 ± 0.063
x2 = 0.9602	999.58 ± 0.26	994.7 ± 0.27	989.24 ± 0.29	1580.1 ± 6.4	1591.8 ± 6.5	1587.1 ± 6.5	0.699 ± 0.063	0.572 ± 0.063
x2 = 0.97	997.45 ± 0.26	992.65 ± 0.28	987.28 ± 0.29	1566.1 ± 6.4	1582.1 ± 6.5	1579.9 ± 6.4	0.646 ± 0.063	0.536 ± 0.063
x2 = 0.9801	995.14 ± 0.27	990.44 ± 0.28	985.14 ± 0.3	1552.1 ± 6.4	1571.1 ± 6.4	1571 ± 6.4	0.594 ± 0.063	0.501 ± 0.063
x2 = 0.9897	992.82 ± 0.28	988.21 ± 0.29	982.99 ± 0.31	1549.9 ± 6.4	1559.2 ± 6.4	1562 ± 6.4	0.549 ± 0.063	0.469 ± 0.063
x2 = 0.9921	992.23 ± 0.28	987.63 ± 0.29	982.43 ± 0.31	1548.1 ± 6.3	1556.2 ± 6.4	1559.1 ± 6.4	0.538 ± 0.063	0.462 ± 0.063
x2 = 0.9951	991.47 ± 0.28	986.91 ± 0.3	981.73 ± 0.31	1543.2 ± 6.3	1552.2 ± 6.4	1556 ± 6.4	0.524 ± 0.063	0.453 ± 0.063
